{"source": "patent US4241083A", "about": "“Germicidal composition for agriculture and horticulture” (priority 1978, dated 1980)", "key": {"[1]": {"test_system": "Pyrenochaeta sp.", "experiment": "Growth of germs on potato dextrose-agar medium containing the compound (Ex. 14)", "type": "cell-based", "parameters": "key: +++: extremely much growth; ++: much growth; +: a little growth; -: no growth", "details": "two weeks, 25° C.", "protocol": "(§1) Ethyl 2-(2-hydroxyethylamino)-3-benzoylpropionate hydrochloride was added to potato dextrose-agar culture medium in the concentration indicated in Table 1 and the suspensions of various kinds of germs were dropped on the culture medium. After incubation of the germs for two weeks in thermostat (25° C.), the growing conditions were observed.\n(§2) In Table 1, +++, ++, + and - represent \"extremely much growth\", \"much growth\", \"a little growth\" and \"no growth\" respectively."}, "[2]": {"test_system": "Phomopsis vexans", "experiment": "Growth of germs on potato dextrose-agar medium containing the compound (Ex. 11)", "type": "cell-based", "parameters": "key: +++: extremely much growth; ++: much growth; +: a little growth; -: no growth", "details": "two weeks, 25° C.", "protocol": "as §1, §2"}, "[3]": {"test_system": "Valsa ceratosperma", "experiment": "Length of disease spots on apple branches treated on the third day after inoculation (Ex. 17)", "type": "in vivo", "details": "1000 ppm on third day after inoculation", "protocol": "(§3) Branches of Delicious apple (branch diameter: about 1 cm. thick) grown for 1-2 years were cut to 10 cm. length. The cut branches were dried in a low temperature chamber (3° C.) until the water content of the cut branches became 50%. The dried cut branches were immersed in an aqueous solution of ethyl 2-(2-hydroxyethylamino)-3-benzoylpropionate hydrochloride (500 ppm, 1000 ppm and 2500 ppm) for one minute and then dried.\n(§4) Each cut branch was end bored by a white heated 8 mm diameter cork borer. Valsa ceratosperma, previously cultured for four days on a potato dextrose-agar culture medium, was introduced into the branch by inoculating the branch with the Valsa ceratosperma containing culture by means of the sterilized cork borer. The branches prepared in this way were placed on wet filter paper spread in a polyethylene tray. The tray was inserted into a polyethylene bag which was sealed and then the bag was put into a thermostat (25° C.) for various controlled times.\n(§5) After removal from the thermostat, the length of disease spots on each branch was measured.\nThe same experiment as in Example 16 was carried out except that the apple branches were treated with the germicides (1000 ppm) on the third day after the branches were inoculated with the germ. The lengths of disease spots on the third day […], fifth day and seventh day were 5.1 mm, 5.2 mm and 5.2 mm respectively."}, "[4]": {"test_system": "Valsa ceratosperma", "experiment": "Length of disease spots on cut apple branches immersed in germicide before inoculation (Ex. 16)", "type": "in vivo", "details": "25° C.", "protocol": "as §3, §4, §5\nA similar experiment for comparison was carried out using Benomyl, i.e. methyl-1-(buthylcarbamoyl)-2-benzimidazole carbamate as the germicide. The results of the comparative experiment and also a control experiment, in which the dried cut branches were not immersed in germicide (blank), are also shown in Table 2."}, "[5]": {"test_system": "Sphaerotheca fuliginea", "experiment": "Prevention effect for powdery mildew on cucumbers (Ex. 20, 21)", "type": "in vivo", "details": "Table 5; for Germicidal damage to seedlings: cucumber seedlings; for Percentage of leaf area with disease spots / Percentage of leaves attacked with the disease / Prevention value per leaf (Perfect prevention = 100): third and ninth days, read fifteenth day after inoculation", "protocol": "The prevention effect for powdery mildew on cucumbers caused by Sphaerotheca fuliginea was examined in the following manner.\nCucumber seedlings (bifoliate age) of Tokiwa Hikari No. 3 (p type) variety planted in sections of two rows of three were inoculated with the above germ by brushing on spores from a cucumber leaf attacked with powdery mildew. […]\nThe leaf area on which powdery mildew spots appeared was measured on the fifteenth day after the seedlings were inoculated with the germ. The spotted area is expresses as a prevention value.\nThe same experiment as Example 20 was carried out except that isopropyl 2-(2-hydroxyethylamino)-3-benzoyl-propionate hydrochloride was used instead of ethyl 2-(2-hydroxyethylamino)-3-benzoylpropionate hydrochloride."}, "[6]": {"test_system": "Colletotrichum lagenarium", "experiment": "Growth of germs on potato dextrose-agar medium containing the compound (Ex. 10, germ of anthracnose on watermelons)", "type": "cell-based", "parameters": "key: +++: extremely much growth; ++: much growth; +: a little growth; -: no growth", "details": "two weeks, 25° C.", "protocol": "as §1, §2\n^2 Germ of anthracnose on watermelons"}, "[7]": {"test_system": "Stemphylium lycopersici", "experiment": "Growth of germs on potato dextrose-agar medium containing the compound (Ex. 7)", "type": "cell-based", "parameters": "key: +++: extremely much growth; ++: much growth; +: a little growth; -: no growth", "details": "two weeks, 25° C.", "protocol": "as §1, §2"}, "[8]": {"test_system": "Sclerotinia sclerotiorum", "experiment": "Growth of germs on potato dextrose-agar medium containing the compound (Ex. 12)", "type": "cell-based", "parameters": "key: +++: extremely much growth; ++: much growth; +: a little growth; -: no growth", "details": "two weeks, 25° C.", "protocol": "as §1, §2"}, "[9]": {"test_system": "Alternaria solani", "experiment": "Growth of germs on potato dextrose-agar medium containing the compound (Ex. 6)", "type": "cell-based", "parameters": "key: +++: extremely much growth; ++: much growth; +: a little growth; -: no growth", "details": "two weeks, 25° C.", "protocol": "as §1, §2"}, "[10]": {"test_system": "Colletotrichum lagenarium", "experiment": "Prevention effect for anthracnose on cucumber (Ex. 18)", "type": "in vivo", "details": "for Germicidal damage to seedlings: cucumber seedlings; for Number of disease spots per leaf / Percentage of leaves attacked with the disease / Prevention value per leaf (Perfect prevention = 100): sixth day after spraying", "excerpt": "The prevention effect for anthracnose on cucumber was investigated in the following manner.\nAn aqueous solution of ethyl 2-(2-hydroxyethylamino)-3-benzoylpropionate hydrochloride (2500 ppm and 5000 ppm) was sprayed on cucumber seedlings (bifoliate age) of Tokiwa Hikari No. 3 (p type) variety which were planted in sections of two rows of three.\nAfter air-drying the seedlings, a spore suspention of Colletotrichum lagenarium was inoculated on the test seedlings by means of a glass sprayer. The inoculated seedlings were kept at 20°-22° C. for four days in the inoculation box, and then allowed to stand in a glass chamber.\nThe number of disease spots of anthracnose that appeared on the cucumber leaves was measured on the sixth day after spraying the germicidal aqueous solution. The number of spots can be used to calculate a prevention value. Using the number of spots that appeared per control leaf as a reference, the relative number per hundred of spots prevented by the experimental germicide is the prevention value. Thus a perfectly preventive germicide has a prevention value of 100 and the control has a prevention value of 0."}}}
{"smiles": "CCOC(=O)C(CC(=O)c1ccccc1)NCCO.Cl", "note": "(stereo not shown) [Ethyl 2-(2-hydroxyethylamino)-3-benzoylpropionate hydrochloride]", "values": [{"measurement": "growing conditions (growth of germ)", "setting": "[1]; 10 ppm", "value": "++"}, {"measurement": "growing conditions (growth of germ)", "setting": "[1]; 20 ppm", "value": "++"}, {"measurement": "growing conditions (growth of germ)", "setting": "[1]; 50 ppm", "value": "-"}, {"measurement": "growing conditions (growth of germ)", "setting": "[1]; 100 ppm", "value": "-"}, {"measurement": "growing conditions (growth of germ)", "setting": "[1]; 200 ppm", "value": "-"}, {"measurement": "growing conditions (growth of germ)", "setting": "[2]; 10 ppm", "value": "+"}, {"measurement": "growing conditions (growth of germ)", "setting": "[2]; 20 ppm", "value": "-"}, {"measurement": "growing conditions (growth of germ)", "setting": "[2]; 50 ppm", "value": "-"}, {"measurement": "growing conditions (growth of germ)", "setting": "[2]; 100 ppm", "value": "-"}, {"measurement": "growing conditions (growth of germ)", "setting": "[2]; 200 ppm", "value": "-"}, {"measurement": "lengths of disease spots", "setting": "[3]; fifth day", "value": 5.2, "unit": "mm"}, {"measurement": "lengths of disease spots", "setting": "[3]; seventh day", "value": 5.2, "unit": "mm"}, {"measurement": "lengths of disease spots", "setting": "[3]; third day", "value": 5.1, "unit": "mm"}, {"measurement": "Length of disease spot", "setting": "[4]; 500 ppm, after 3 days", "value": 0, "unit": "mm"}, {"measurement": "Length of disease spot", "setting": "[4]; 500 ppm, after 5 days", "value": 0, "unit": "mm"}, {"measurement": "Length of disease spot", "setting": "[4]; 500 ppm, after 7 days", "value": 0.2, "unit": "mm"}, {"measurement": "Length of disease spot", "setting": "[4]; 1000 ppm, after 3 days", "value": 0, "unit": "mm"}, {"measurement": "Length of disease spot", "setting": "[4]; 1000 ppm, after 5 days", "value": 0, "unit": "mm"}, {"measurement": "Length of disease spot", "setting": "[4]; 1000 ppm, after 7 days", "value": 0, "unit": "mm"}, {"measurement": "Length of disease spot", "setting": "[4]; 2500 ppm, after 3 days", "value": 0, "unit": "mm"}, {"measurement": "Length of disease spot", "setting": "[4]; 2500 ppm, after 5 days", "value": 0, "unit": "mm"}, {"measurement": "Length of disease spot", "setting": "[4]; 2500 ppm, after 7 days", "value": 0, "unit": "mm"}, {"measurement": "Germicidal damage to seedlings", "setting": "[5]; 2500 ppm", "value": "none"}, {"measurement": "Percentage of leaf area with disease spots", "setting": "[5]; 2500 ppm", "value": 0, "unit": "%"}, {"measurement": "Percentage of leaves attacked with the disease", "setting": "[5]; 2500 ppm", "value": 0, "unit": "%"}, {"measurement": "Prevention value per leaf (Perfect prevention = 100)", "setting": "[5]; 2500 ppm", "value": 100}, {"measurement": "Germicidal damage to seedlings", "setting": "[5]; 5000 ppm", "value": "none"}, {"measurement": "Percentage of leaf area with disease spots", "setting": "[5]; 5000 ppm", "value": 0, "unit": "%"}, {"measurement": "Percentage of leaves attacked with the disease", "setting": "[5]; 5000 ppm", "value": 0, "unit": "%"}, {"measurement": "Prevention value per leaf (Perfect prevention = 100)", "setting": "[5]; 5000 ppm", "value": 100}, {"measurement": "growing conditions (growth of germ)", "setting": "[6]; 10 ppm", "value": "++"}, {"measurement": "growing conditions (growth of germ)", "setting": "[6]; 20 ppm", "value": "++"}, {"measurement": "growing conditions (growth of germ)", "setting": "[6]; 50 ppm", "value": "-"}, {"measurement": "growing conditions (growth of germ)", "setting": "[6]; 100 ppm", "value": "-"}, {"measurement": "growing conditions (growth of germ)", "setting": "[6]; 200 ppm", "value": "-"}, {"measurement": "growing conditions (growth of germ)", "setting": "[7]; 10 ppm", "value": "+"}, {"measurement": "growing conditions (growth of germ)", "setting": "[7]; 20 ppm", "value": "+"}, {"measurement": "growing conditions (growth of germ)", "setting": "[7]; 50 ppm", "value": "-"}, {"measurement": "growing conditions (growth of germ)", "setting": "[7]; 100 ppm", "value": "-"}, {"measurement": "growing conditions (growth of germ)", "setting": "[7]; 200 ppm", "value": "-"}, {"measurement": "growing conditions (growth of germ)", "setting": "[8]; 10 ppm", "value": "+++"}, {"measurement": "growing conditions (growth of germ)", "setting": "[8]; 20 ppm", "value": "+++"}, {"measurement": "growing conditions (growth of germ)", "setting": "[8]; 50 ppm", "value": "-"}, {"measurement": "growing conditions (growth of germ)", "setting": "[8]; 100 ppm", "value": "-"}, {"measurement": "growing conditions (growth of germ)", "setting": "[8]; 200 ppm", "value": "-"}, {"measurement": "growing conditions (growth of germ)", "setting": "[9]; 10 ppm", "value": "++"}, {"measurement": "growing conditions (growth of germ)", "setting": "[9]; 20 ppm", "value": "-"}, {"measurement": "growing conditions (growth of germ)", "setting": "[9]; 50 ppm", "value": "-"}, {"measurement": "growing conditions (growth of germ)", "setting": "[9]; 100 ppm", "value": "-"}, {"measurement": "growing conditions (growth of germ)", "setting": "[9]; 200 ppm", "value": "-"}, {"measurement": "Germicidal damage to seedlings", "setting": "[10]; 2500 ppm", "value": "none"}, {"measurement": "Number of disease spots per leaf", "setting": "[10]; 2500 ppm", "value": 2.83}, {"measurement": "Percentage of leaves attacked with the disease", "setting": "[10]; 2500 ppm", "value": 83.3, "unit": "%"}, {"measurement": "Prevention value per leaf (Perfect prevention = 100)", "setting": "[10]; 2500 ppm", "value": 88.0}, {"measurement": "Germicidal damage to seedlings", "setting": "[10]; 5000 ppm", "value": "none"}, {"measurement": "Number of disease spots per leaf", "setting": "[10]; 5000 ppm", "value": 2.92}, {"measurement": "Percentage of leaves attacked with the disease", "setting": "[10]; 5000 ppm", "value": 91.7, "unit": "%"}, {"measurement": "Prevention value per leaf (Perfect prevention = 100)", "setting": "[10]; 5000 ppm", "value": 87.6}]}
